System: subjects with moderate-to-severe plaque psoriasis
Experiment: Safety, adverse events, Example 2 through Week 56
Format: in vivo, human
Set-up: Participants experiencing 1 or more AEs: unit not given here
Details: for Subjects with 1 or more Adverse events / Subjects with 1 or more Adverse events: Alanine aminotransferase increased / Subjects with 1 or more Adverse events: Arthralgia / Subjects with 1 or more Adverse events: Aspartate aminotransferase increased / Subjects with 1 or more Adverse events: Bronchitis / Subjects with 1 or more Adverse events: COVID-19 / Subjects with 1 or more Adverse events: Cough / Subjects with 1 or more Adverse events: Diarrhea / Subjects with 1 or more Adverse events: Headache / Subjects with 1 or more Adverse events: Influenza / Subjects with 1 or more Adverse events: Nasopharyngitis / Subjects with 1 or more Adverse events: Upper respiratory tract infection / Subjects with 1 or more Adverse events: Urinary tract infection / Subjects with 1 or more Serious adverse events / Subjects with 1 or more Serious adverse events: COVID-19 / Subjects with 1 or more Serious adverse events: Cerebrovascular accident / Subjects with 1 or more Serious adverse events: Coronary artery disease / Subjects with 1 or more Serious adverse events: Diverticulitis / Subjects with 1 or more Serious adverse events: Foot deformity / Subjects with 1 or more Serious adverse events: Infected cyst / Subjects with 1 or more Serious adverse events: Intervertebral disc protrusion / Subjects with 1 or more Serious adverse events: Ligament injury / Subjects with 1 or more Serious adverse events: Non-cardiac chest pain / Subjects with 1 or more Serious adverse events: Suicide attempt / Subjects with 1 or more Serious adverse events: Tonsillar hypertrophy / Subjects with 1 or more Serious adverse events: Uterine leiomyoma / Subjects with 1 or more Serious adverse events: Ventricular dysfunction / Subjects with 1 or more treatment-emergent adverse events leading to discontinuation of study agent: number of subjects
Excerpt: The LTE safety analysis was based on randomized participants in Example who entered the present long-term extension study and received at least one dose of study intervention (including a partial dose) during the study period.

[1] = Placebo → 100 mg QD, through Week 56
[2] = Week 16 through Week 56, dose group = column
[3] = combined group, long-term extension

CC(=O)NCCCC[C@@H]1NC(=O)[C@H](Cc2c[nH]c3c(C)cccc23)NC(=O)[C@H]([C@@H](C)O)NC(=O)[C@H](CC(N)=O)NC(=O)[C@@H](NC(C)=O)C(C)(C)SSC(C)(C)[C@@H](C(=O)N[C@@H](Cc2ccc(OCCN)cc2)C(=O)N[C@@H](Cc2ccc3ccccc3c2)C(=O)NC2(C(=O)N[C@@H](CCC(=O)O)C(=O)N[C@@H](CC(N)=O)C(=O)N[C@@H](Cc3cccnc3)C(=O)N(C)CC(N)=O)CCOCC2)NC1=O [IL-23 receptor antagonist peptide, Ac-[Pen]*-N-T-[W(7-Me)]-[Lys(Ac)]-[Pen]*-Phe[4-(2-aminoethoxy)]-[2-Nal]-[THP]-E-N-[3-Pal]-Sarc-NH2 (*[Pen]-[Pen]* formdisulfidebond)]
Pyrexia: number of subjects [1]: 0 | Rash pruritic: number of subjects [1]: 0 | Renal and urinary disorders: % of subjects [1]: (5.7%) | Renal and urinary disorders: number of subjects [1]: 2 | Renal mass: number of subjects [1]: 0 | Respiratory, thoracic and mediastinal disorders: % of subjects [1]: (2.9%) | Respiratory, thoracic and mediastinal disorders: number of subjects [1]: 1 | Retinal vein occlusion: % of subjects [1]: (2.9%) | Retinal vein occlusion: number of subjects [1]: 1 | Rhinorrhoea: number of subjects [1]: 0 | Seasonal allergy: number of subjects [1]: 0 | Skin and subcutaneous tissue disorders: % of subjects [1]: (5.7%) | Skin and subcutaneous tissue disorders: number of subjects [1]: 2 | Skin laceration: number of subjects [1]: 0 | Skin papilloma: number of subjects [1]: 0 | Social circumstances: number of subjects [1]: 0 | Steatohepatitis: number of subjects [1]: 0 | Suicide attempt: number of subjects [1]: 0 | Sunburn: number of subjects [1]: 0 | Thrombocytopenia: number of subjects [1]: 0 | Thrombocytosis: number of subjects [1]: 0 | Tonsillar hypertrophy: number of subjects [1]: 0 | Tooth fracture: number of subjects [1]: 0 | Type 2 diabetes mellitus: number of subjects [1]: 0 | Urinary tract disorder: number of subjects [1]: 0 | Uterine leiomyoma: number of subjects [1]: 0 | Vascular disorders: % of subjects [1]: (2.9%) | Vascular disorders: number of subjects [1]: 1 | Ventricular dysfunction: number of subjects [1]: 0 | Vertigo: number of subjects [1]: 0 | Vitamin D deficiency: number of subjects [1]: 0 | Investigations (system organ class): % of subjects [2]: (10.5%) | Nasopharyngitis: % of subjects [2]: (25.7%) | Infections and infestations AEs (all groups, long-term extension): 41.9% | Tolerability (all treatment groups, long-term extension): well-tolerated | COVID-19 [3]: 5.3% | Nasopharyngitis [3]: 18.1% | Participants experiencing 1 or more AEs [3]: 58.600 | Upper respiratory tract infection [3]: 9.7% | Number of participants who discontinued study intervention due to one or more AEs (long-term extension): 4 | Participants with one or more serious adverse events (long-term extension): 4.0% | Subjects with 1 or more Adverse events (through Week 56, 25 mg BID): 32 | Subjects with 1 or more Adverse events: Alanine aminotransferase increased (through Week 56, 25 mg BID): 1 | Subjects with 1 or more Adverse events: Arthralgia (through Week 56, 25 mg BID): 0 | Subjects with 1 or more Adverse events: Aspartate aminotransferase increased (through Week 56, 25 mg BID): 1 | Subjects with 1 or more Adverse events: Bronchitis (through Week 56, 25 mg BID): 2 | Subjects with 1 or more Adverse events: COVID-19 (through Week 56, 25 mg BID): 9 | Subjects with 1 or more Adverse events: Cough (through Week 56, 25 mg BID): 0 | Subjects with 1 or more Adverse events: Diarrhea (through Week 56, 25 mg BID): 2 | Subjects with 1 or more Adverse events: Headache (through Week 56, 25 mg BID): 3 | Subjects with 1 or more Adverse events: Influenza (through Week 56, 25 mg BID): 3 | Subjects with 1 or more Adverse events: Nasopharyngitis (through Week 56, 25 mg BID): 8 | Subjects with 1 or more Adverse events: Upper respiratory tract infection (through Week 56, 25 mg BID): 3 | Subjects with 1 or more Adverse events: Urinary tract infection (through Week 56, 25 mg BID): 1 | Subjects with 1 or more Serious adverse events (through Week 56, 25 mg BID): 3 | Subjects with 1 or more Serious adverse events: COVID-19 (through Week 56, 25 mg BID): 0 | Subjects with 1 or more Serious adverse events: Cerebrovascular accident (through Week 56, 25 mg BID): 0 | Subjects with 1 or more Serious adverse events: Coronary artery disease (through Week 56, 25 mg BID): 0 | Subjects with 1 or more Serious adverse events: Diverticulitis (through Week 56, 25 mg BID): 0 | Subjects with 1 or more Serious adverse events: Foot deformity (through Week 56, 25 mg BID): 0 | Subjects with 1 or more Serious adverse events: Infected cyst (through Week 56, 25 mg BID): 0 | Subjects with 1 or more Serious adverse events: Intervertebral disc protrusion (through Week 56, 25 mg BID): 0 | Subjects with 1 or more Serious adverse events: Ligament injury (through Week 56, 25 mg BID): 1 | Subjects with 1 or more Serious adverse events: Non-cardiac chest pain (through Week 56, 25 mg BID): 0 | Subjects with 1 or more Serious adverse events: Suicide attempt (through Week 56, 25 mg BID): 0 | Subjects with 1 or more Serious adverse events: Tonsillar hypertrophy (through Week 56, 25 mg BID): 1 | Subjects with 1 or more Serious adverse events: Uterine leiomyoma (through Week 56, 25 mg BID): 0 | Subjects with 1 or more Serious adverse events: Ventricular dysfunction (through Week 56, 25 mg BID): 1 | Subjects with 1 or more treatment-emergent adverse events leading to discontinuation of study agent (through Week 56, 25 mg BID): 2 | Subjects with 1 or more Adverse events (through Week 56, 25 mg QD): 24 | Subjects with 1 or more Adverse events: Alanine aminotransferase increased (through Week 56, 25 mg QD): 1 | Subjects with 1 or more Adverse events: Arthralgia (through Week 56, 25 mg QD): 1 | Subjects with 1 or more Adverse events: Aspartate aminotransferase increased (through Week 56, 25 mg QD): 1 | Subjects with 1 or more Adverse events: Bronchitis (through Week 56, 25 mg QD): 2 | Subjects with 1 or more Adverse events: COVID-19 (through Week 56, 25 mg QD): 6 | Subjects with 1 or more Adverse events: Cough (through Week 56, 25 mg QD): 1 | Subjects with 1 or more Adverse events: Diarrhea (through Week 56, 25 mg QD): 2 | Subjects with 1 or more Adverse events: Headache (through Week 56, 25 mg QD): 2 | Subjects with 1 or more Adverse events: Influenza (through Week 56, 25 mg QD): 0 | Subjects with 1 or more Adverse events: Nasopharyngitis (through Week 56, 25 mg QD): 3 | Subjects with 1 or more Adverse events: Upper respiratory tract infection (through Week 56, 25 mg QD): 7 | Subjects with 1 or more Adverse events: Urinary tract infection (through Week 56, 25 mg QD): 2 | Subjects with 1 or more Serious adverse events (through Week 56, 25 mg QD): 0 | Subjects with 1 or more Serious adverse events: COVID-19 (through Week 56, 25 mg QD): 0 | Subjects with 1 or more Serious adverse events: Cerebrovascular accident (through Week 56, 25 mg QD): 0 | Subjects with 1 or more Serious adverse events: Coronary artery disease (through Week 56, 25 mg QD): 0 | Subjects with 1 or more Serious adverse events: Diverticulitis (through Week 56, 25 mg QD): 0 | Subjects with 1 or more Serious adverse events: Foot deformity (through Week 56, 25 mg QD): 0 | Subjects with 1 or more Serious adverse events: Infected cyst (through Week 56, 25 mg QD): 0 | Subjects with 1 or more Serious adverse events: Intervertebral disc protrusion (through Week 56, 25 mg QD): 0 | Subjects with 1 or more Serious adverse events: Ligament injury (through Week 56, 25 mg QD): 0 | Subjects with 1 or more Serious adverse events: Non-cardiac chest pain (through Week 56, 25 mg QD): 0 | Subjects with 1 or more Serious adverse events: Suicide attempt (through Week 56, 25 mg QD): 0 | Subjects with 1 or more Serious adverse events: Tonsillar hypertrophy (through Week 56, 25 mg QD): 0 | Subjects with 1 or more Serious adverse events: Uterine leiomyoma (through Week 56, 25 mg QD): 0 | Subjects with 1 or more Serious adverse events: Ventricular dysfunction (through Week 56, 25 mg QD): 0 | Subjects with 1 or more treatment-emergent adverse events leading to discontinuation of study agent (through Week 56, 25 mg QD): 3 | Subjects with 1 or more Adverse events (through Week 56, 50 mg QD): 32 | Subjects with 1 or more Adverse events: Alanine aminotransferase increased (through Week 56, 50 mg QD): 1 | Subjects with 1 or more Adverse events: Arthralgia (through Week 56, 50 mg QD): 1 | Subjects with 1 or more Adverse events: Aspartate aminotransferase increased (through Week 56, 50 mg QD): 1 | Subjects with 1 or more Adverse events: Bronchitis (through Week 56, 50 mg QD): 4 | Subjects with 1 or more Adverse events: COVID-19 (through Week 56, 50 mg QD): 6 | Subjects with 1 or more Adverse events: Cough (through Week 56, 50 mg QD): 2 | Subjects with 1 or more Adverse events: Diarrhea (through Week 56, 50 mg QD): 4 | Subjects with 1 or more Adverse events: Headache (through Week 56, 50 mg QD): 1 | Subjects with 1 or more Adverse events: Influenza (through Week 56, 50 mg QD): 1 | Subjects with 1 or more Adverse events: Nasopharyngitis (through Week 56, 50 mg QD): 13 | Subjects with 1 or more Adverse events: Upper respiratory tract infection (through Week 56, 50 mg QD): 3 | Subjects with 1 or more Adverse events: Urinary tract infection (through Week 56, 50 mg QD): 1 | Subjects with 1 or more Serious adverse events (through Week 56, 50 mg QD): 3 | Subjects with 1 or more Serious adverse events: COVID-19 (through Week 56, 50 mg QD): 0 | Subjects with 1 or more Serious adverse events: Cerebrovascular accident (through Week 56, 50 mg QD): 0 | Subjects with 1 or more Serious adverse events: Coronary artery disease (through Week 56, 50 mg QD): 1 | Subjects with 1 or more Serious adverse events: Diverticulitis (through Week 56, 50 mg QD): 0 | Subjects with 1 or more Serious adverse events: Foot deformity (through Week 56, 50 mg QD): 1 | Subjects with 1 or more Serious adverse events: Infected cyst (through Week 56, 50 mg QD): 1 | Subjects with 1 or more Serious adverse events: Intervertebral disc protrusion (through Week 56, 50 mg QD): 0 | Subjects with 1 or more Serious adverse events: Ligament injury (through Week 56, 50 mg QD): 0 | Subjects with 1 or more Serious adverse events: Non-cardiac chest pain (through Week 56, 50 mg QD): 1 | Subjects with 1 or more Serious adverse events: Suicide attempt (through Week 56, 50 mg QD): 0

From patent US20260232767A1, “INTERLEUKIN-23 RECEPTOR ANTAGONIST PEPTIDES FOR USE IN THE TREATMENT OF PSORIASIS” (Janssen Pharmaceutica NV, priority 2023, published 2026)
